The record followed here is PubChem BioAssay (NCI).

Holding throughout (assay): NCI anticancer screen, dose series, 48 h
The test system of experiment [1] is NCI/ADR-RES ovarian.
Experiment [2] has as its system LOX IMVI melanoma.
The subject of experiment [3] is K-562 leukemia.
In experiment [4] the test system is SR leukemia.
In experiment [5] the test system is TK-10 renal.
In experiment [6] the test system is HCC-2998 colon.
For experiment [7], the system named is SNB-19 CNS.
For experiment [8], the system named is OVCAR-4 ovarian.
Experiment [9] deals with SK-MEL-2 melanoma.
The subject of experiment [10] is A549 NSCLC.

Molecules are shown by their SMILES.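 The compound was tested at five concentrations on cells cultured in 96-well plates, with a 48-hour exposure period. GI50: concentration for 50% inhibition of growth. Definition used: TGI = concentration required for complete inhibition of growth.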

As to `Cc1cncc2cccc(S(=O)(=O)N3CCCNC[C@@H]3C)c12`, the GI50 was 25.4 µM in experiment [1]; 7.94 µM in experiment [2]; 50 µM in experiment [3]; 3.55 µM in experiment [4]; 9.18 µM in experiment [5]; above 88.9 µM in experiment [6]. For the same compound, the GI50 in experiment [7] is 46.2 µM; in [8], above 100 µM; in experiment [9] it was 61 µM; in experiment [10], 14.6 µM. Besides, the TGI in experiment [1] is above 100 µM; in experiment [2] it was 87 µM; in [3], above 100 µM; in experiment [4] it was above 91.2 µM; in experiment [5], 84.4 µM; in experiment [6] it was above 100 µM. The TGI in experiment [7], in [8], in experiment [9] and in experiment [10] was above 100 µM in each case.

In the case of `COc1cc(C2CC(c3cc(Cl)c(C)cc3O)=NN2c2ccc(S(N)(=O)=O)cc2)cc(OC)c1OC` (centres undefined), the GI50 in experiment [1] is 2.58 µM; in experiment [2], 2.08 µM; in [3] it was 3.22 µM; in experiment [4], 2.47 µM; in experiment [5] it was 2.6 µM; in [6], 1.84 µM. In addition, the GI50 in experiment [7] was 4.61 µM; in experiment [8], 3.47 µM; in experiment [9], 3.53 µM; in experiment [10] it was 4 µM. In addition, the TGI in [1] was determined as 7.53 µM; in experiment [2] it was 4.28 µM; in experiment [3], 30.9 µM; in experiment [4] it was 7.35 µM; in [5], 6.6 µM; in experiment [6], 3.75 µM. The TGI in [7] was 23.9 µM; in [8], above 100 µM; in [9], 12 µM; in experiment [10], 15.5 µM.

As to `C[C@@H]1CC[C@H]2C(CN(C)CC3=C(C(F)(F)F)O[C@@H]4O[C@@]5(C)CC[C@H]6[C@H](C)CC[C@@H]3[C@@]46OO5)=C(C(F)(F)F)O[C@@H]3O[C@@]4(C)CC[C@@H]1[C@]32OO4`, the GI50 in [1] is 16.8 µM; in experiment [2] it was 0.715 µM; in [4], 81.9 µM; in experiment [5], 4.93 µM; in [6], 18.9 µM; in experiment [7], 23.6 µM. The GI50 was 1.12 µM in [8], above 37.1 µM in [9] and 1.58 µM in experiment [10]. For the same compound, the TGI in experiment [1] is above 59.2 µM; in experiment [2], 1.98 µM; in experiment [3] it was above 42.6 µM; in experiment [4], above 100 µM; in experiment [5], above 54.2 µM; in experiment [6], above 59.5 µM. Also, the TGI in experiment [7] is above 100 µM; in experiment [8] it was 56.6 µM; in experiment [9], above 80.7 µM; in [10] it was above 45.4 µM.

In the case of `O=C1c2ccccc2-c2c1c1ccccc1c(=O)n2CCCNCCO`, the GI50 in experiment [1] was 1.67 µM; in experiment [2], 0.206 µM; in experiment [3], 0.284 µM; in experiment [4] it was 0.086 µM; in [5], 1.33 µM; in experiment [6], 1.28 µM. Besides, the GI50 was 0.813 µM in experiment [7], 1.24 µM in experiment [8], 2.84 µM in experiment [9] and 0.267 µM in experiment [10]. Besides, the TGI in experiment [1] was 8.7 µM; in [2] it was 2.79 µM; in [3], 7.95 µM; in [4], 0.618 µM; in [5] it was 7.44 µM; in [6], 5.74 µM. The TGI in experiment [7] amounted to 6.73 µM; in experiment [8] it was 5.95 µM; in experiment [9], 6.15 µM; in experiment [10], 12.8 µM.

For `Cc1cccc(Cc2cnc(NC(=O)/C=C/c3ccco3)s2)c1`, the GI50 is 0.0364 µM in experiment [1]; 0.0683 µM in experiment [2]; 0.0347 µM in experiment [3]; 0.0342 µM in experiment [4]; above 100 µM in experiment [5]; 0.135 µM in experiment [6]. For the same compound, the GI50 was 0.0488 µM in experiment [7], 1.59 µM in experiment [8], 0.0737 µM in [9] and 0.0591 µM in experiment [10]. For the same compound, the TGI in experiment [1], in [2], in experiment [3], in experiment [4], in experiment [5] and in [6] was above 100 µM each time. Besides, the TGI in [7], in [8], in [9] and in experiment [10] was above 100 µM in each case.

Turning to `Cn1ccnc1C(=O)/C=C/c1ccc(CC(=O)Nc2cc(F)c(F)c(F)c2)cc1`, the GI50 was 1.09 µM in [1]; 1.03 µM in [2]; 0.808 µM in experiment [3]; 0.861 µM in experiment [4]; 4.29 µM in [5]; 2.55 µM in experiment [6]. Further, the GI50 was 2.87 µM in experiment [7], 2.25 µM in [8], 4.22 µM in [9] and 1.57 µM in experiment [10]. Moreover, the TGI in experiment [1] is above 25 µM; in [2], 3.79 µM; in experiment [3] it was above 25 µM; in [4], 8.91 µM; in experiment [5], 13.4 µM; in experiment [6], 6.04 µM. Also, the TGI in experiment [7] is 6.59 µM; in [8] it was above 25 µM; in experiment [9] it was 10.6 µM; in experiment [10], 20.2 µM.

Turning to `O=[N+]([O-])C1(CO)COC2(OC1)c1ccccc1-c1ccccc12`, the TGI was above 72.9 µM in [1]; 67.7 µM in experiment [2]; above 87 µM in experiment [3]; 82.1 µM in experiment [4]; above 100 µM in [5]; above 100 µM in [6]. Besides, the TGI in [7], in [8], in experiment [9] and in [10] was above 100 µM each time.
